Converted amounts (≈) assume the structure as drawn. Where two headings read alike, the source gives them in different places. One block for each compound: values may come before it.
Experiments:
[1] = Solubility of ITE in conventional solvents; type: physicochemical
From the text: 2-(1H-Indol-3-ylcarbonyl)-4-thiazolecarboxylic acid methyl ester (ITE) is a potent aryl hydrocarbon receptor agonist which is difficult to formulate in nanoparticulate form (including gold and PLGA nanoparticles and many conventional liposomal compositions, for example). […] ITE is also highly prone to self-aggregation.

[2] = tested on: EAE; conditions: cited from earlier work
[3] = type: physicochemical
Description: A stability assessment was performed in which liposomes from batch 1 were stored in HBS for one month at 4° C. and re-assayed.
• Lipid ratios were varied in the following range for each lipid: • Egg PC or HEPC: ˜53-72 mol % • Cholesterol: ˜25-44 mol % • PEG2000-PE: 1.5 to 6.25 mol % ITE was fixed at 0.5% by weight to the total lipid mass for all the batches tested. ITE was added from a DMSO stock. Batches were observed daily for any signs of precipitation/aggregation

[4] = tested on: splenocytes of 2D2 mice; assay: Proliferation of 2D2 splenocytes stimulated in vitro (Cell Titer Blue); type: cell-based; conditions: 10 μg MOG; 1 μg ITE; 72 hours at 37° C.
Description: Splenocytes were harvested from 2D2 mice, which express a transgenic 2D2 T cell […] (TCR) specific for MOG35-55 and stimulated in vitro with 10 μg of MOG delivered either freely (Free MOG), loaded in egg-PC liposomes alone (MOG-L) or loaded in egg-PC liposomes and additionally stimulated with ITE-loaded egg-PC liposomes (at a dose of 1 μg ITE). Cell proliferation was assessed after incubation at 37° C. for 72 hours using a Cell Titer Blue cell proliferation assay.

solubility ([1]; ethanol, organic solvent or mixture): ~3300 µM (≈ 945 µg/mL) | solubility ([1]; methanol, organic solvent or mixture): ~3000 µM (≈ 859 µg/mL) | solubility ([1]; water): ~115 µM (≈ 32.9 µg/mL)
Compound: COC(=O)c1csc(C(=O)c2c[nH]c3ccccc23)n1 [ITE, 2-(1H-Indol-3-ylcarbonyl)-4-thiazolecarboxylic acid methyl ester]
EAE amelioration ([2]; daily 200 μg per mouse, i.p. or orally, Quintana et al. PNAS 2010): ameliorated

Compound: Clc1cc2c(cc1Cl)Oc1cc(Cl)c(Cl)cc1O2 [TCDD, 2,3,7,8-tetrachlorodibenzo-p-dioxin]
potency relative to ITE in most in vivo studies ([2]; TCDD vs ITE): ~1,000 fold | EAE amelioration ([2]; dose of 100 ng, Quintana et al. Nature 2008): not | EAE amelioration ([2]; dose of 1 μg, Quintana et al. Nature 2008): ameliorated EAE

stability (observation) [3]: in liposome, not stable
Compound: DMPC

Compound: Free MOG: MOG35-55 peptide MEVGWYRSPFSRVVHLYRNGK (SEQ ID NO: 82) delivered freely
2D2 cell proliferation [4]: induced 2D2 cell proliferation

— patent publication US12178908B2, “Tolerogenic liposomes and methods of use thereof” (AnTolRx, Inc., priority 2018, dated 2024)
